Like-named read-outs stand apart in the source and are kept apart here.
Target: human CB2R (Homo sapiens, UniProt P34972)
Test: CB2R mediated modulation of cAMP synthesis
Format: cell-based
Procedure, shortened: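 CHO cells expressing human CB2R were treated 30 min at 37° C. with compounds in buffer containing 1 mM IBMX, 0.25% BSA and 10 uM forskolin; cAMP in lysates was measured by DiscoverX-XS kit.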

[1] = CHO cells expressing human CB2R, inhibition of forskolin-stimulated cAMP synthesis, mean, read-out: CB2 CAMP @ EC50 nM (mean)

Chain of human CB2R (P34972 whole entry): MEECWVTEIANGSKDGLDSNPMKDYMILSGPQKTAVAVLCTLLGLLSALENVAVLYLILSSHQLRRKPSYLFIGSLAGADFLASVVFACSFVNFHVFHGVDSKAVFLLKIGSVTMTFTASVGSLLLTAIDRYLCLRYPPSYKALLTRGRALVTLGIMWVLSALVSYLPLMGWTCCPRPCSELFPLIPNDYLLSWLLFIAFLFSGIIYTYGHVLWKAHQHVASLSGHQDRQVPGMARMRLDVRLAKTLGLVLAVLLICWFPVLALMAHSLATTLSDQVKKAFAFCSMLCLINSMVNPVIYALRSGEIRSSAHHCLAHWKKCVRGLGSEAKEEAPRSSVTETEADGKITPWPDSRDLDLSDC

`Cc1cc(N2C(=O)CC[C@H]2C(=O)Nc2cc(C(C)(C)C)no2)ccc1F` [(S)-1-(4-Fluoro-3-methyl-phenyl)-5-oxo-pyrrolidine-2-carboxylic acid (3-tert-butyl-isoxazol-5-yl)-amide] gave an EC50 of 91.2 nM.
Molecule `Cc1cc(N2C(=O)CC[C@H]2C(=O)Nc2cc(C(C)(C)C)on2)ccc1F` [(S)-1-(4-Fluoro-3-methyl-phenyl)-5-oxo-pyrrolidine-2-carboxylic acid (5-tert-butyl-isoxazol-3-yl)-amide] has an EC50 of 362 nM.
With `CC(C)(C)c1cc(NC(=O)[C@@H]2CCCN2Cc2ccc(F)cc2)on1` [(S)-1-(4-Fluoro-benzyl)-pyrrolidine-2-carboxylic acid (3-tert-butyl-isoxazol-5-yl)-amide] the EC50 was 0.747 nM.
For `CC(C)(C)c1cc(NC(=O)[C@@H]2CCC(=O)N2c2ccc(CF)cc2)on1` [(S)-1-(4-Fluoromethyl-phenyl)-5-oxo-pyrrolidine-2-carboxylic acid (3-tert-butyl-isoxazol-5-yl)-amide], the EC50 was 55.8 nM.
`CC(C)c1ccc(N2C(=O)CC[C@H]2C(=O)Nc2cc(C(C)(C)C)no2)cc1` [(S)-1-(4-Isopropyl-phenyl)-5-oxo-pyrrolidine-2-carboxylic acid (3-tert-butyl-isoxazol-5-yl)-amide] showed an EC50 of 159 nM.
`CC(C)(C)c1cc(NC(=O)[C@@H]2CCCN2S(=O)(=O)c2ccc(S(C)(=O)=O)cc2)no1` [(S)-1-(4-Methanesulfonyl-benzenesulfonyl)-pyrrolidine-2-carboxylic acid (5-tert-butyl-isoxazol-3-yl)-amide] showed an EC50 of 183 nM.
In the case of `COc1ccc(N2C(=O)CC[C@H]2C(=O)Nc2cc(C(C)(C)C)no2)cc1` [(S)-1-(4-Methoxy-phenyl)-5-oxo-pyrrolidine-2-carboxylic acid (3-tert-butyl-isoxazol-5-yl)-amide], the EC50 is reported as 163 nM.
In the case of `CC(C)(C)c1cc(NC(=O)[C@@H]2CCCN2S(=O)(=O)c2ccc(C(F)(F)F)cc2)no1` [(S)-1-(4-Trifluoromethyl-benzenesulfonyl)-pyrrolidine-2-carboxylic acid (5-tert-butyl-isoxazol-3-yl)-amide], the EC50 is reported as 222 nM.
`O=C(Nc1ccc(C(F)(F)F)cn1)[C@@H]1CCCN1c1ccc(C(F)(F)F)cc1` [(S)-1-(4-Trifluoromethyl-phenyl)-pyrrolidine-2-carboxylic acid (5-trifluoromethyl-pyridin-2-yl)-amide] was tested, and the EC50 was 15.5 nM.
`CC(C)(C)c1cc(NC(=O)[C@@H]2CCC(=O)N2c2ccc(C#N)cc2)no1` [(S)-1-(4-cyano-phenyl)-5-oxo-pyrrolidine-2-carboxylic acid (5-tert-butyl-isoxazol-3-yl)-amide] showed an EC50 of 59.9 nM.
Work on `CC(C)(C)c1cc(NC(=O)[C@@H]2CCC(=O)N2c2ccc(F)cc2)no1` [(S)-1-(4-fluoro-phenyl)-5-oxo-pyrrolidine-2-carboxylic acid (5-tert-butyl-isoxazol-3-yl)-amide] yielded an EC50 of 35.7 nM.
In the case of `CC(C)(C)c1cc(NC(=O)[C@@H]2CCC(=O)N2c2ccc([N+](=O)[O-])cc2)no1` [(S)-1-(4-nitro-phenyl)-5-oxo-pyrrolidine-2-carboxylic acid (5-tert-butyl-isoxazol-3-yl)-amide], the EC50 is reported as 21.1 nM.
Work on `CC(C)(C)c1cc(NC(=O)[C@@H]2CCCN2c2ncc(Cl)cc2F)on1` [(S)-1-(5-Chloro-3-fluoro-pyridin-2-yl)-pyrrolidine-2-carboxylic acid (3-tert-butyl-isoxazol-5-yl)-amide] yielded an EC50 of 0.02 nM.
`CC(C)(C)c1cc(NC(=O)[C@@H]2CCC(=O)N2c2ccc(Cl)cn2)on1` [(S)-1-(5-Chloro-pyridin-2-yl)-5-oxo-pyrrolidine-2-carboxylic acid (3-tert-butyl-isoxazol-5-yl)-amide] was tested, and the EC50 was 3.44 nM.
Work on `CC(C)(C)c1cc(NC(=O)[C@@H]2CCC(=O)N2c2ncc(Cl)cn2)on1` [(S)-1-(5-Chloro-pyrimidin-2-yl)-5-oxo-pyrrolidine-2-carboxylic acid (3-tert-butyl-isoxazol-5-yl)-amide] yielded an EC50 of 455 nM.
Molecule `CC(C)(C)c1cc(NC(=O)[C@@H]2CCC(=O)N2c2ccc(Cl)s2)on1` [(S)-1-(5-Chloro-thiophen-2-yl)-5-oxo-pyrrolidine-2-carboxylic acid (3-tert-butyl-isoxazol-5-yl)-amide] has an EC50 of 67.5 nM.
`Cc1nc(N2C(=O)CC[C@H]2C(=O)Nc2cc(C(C)(C)C)no2)ccc1F` [(S)-1-(5-Fluoro-6-methyl-pyridin-2-yl)-5-oxo-pyrrolidine-2-carboxylic acid (3-tert-butyl-isoxazol-5-yl)-amide] showed an EC50 of 74.4 nM.
For `CC(C)(C)c1cc(NC(=O)[C@@H]2CCC(=O)N2c2ccc(F)cn2)on1` [(S)-1-(5-Fluoro-pyridin-2-yl)-5-oxo-pyrrolidine-2-carboxylic acid (3-tert-butyl-isoxazol-5-yl)-amide], the EC50 was 8.15 nM.
Molecule `COc1ccc(N2C(=O)CC[C@H]2C(=O)Nc2cc(C(C)(C)C)no2)nc1` [(S)-1-(5-Methoxy-pyridin-2-yl)-5-oxo-pyrrolidine-2-carboxylic acid (3-tert-butyl-isoxazol-5-yl)-amide] has an EC50 of 22.1 nM.
`Cc1ccc(N2C(=O)CC[C@H]2C(=O)Nc2cc(C(C)(C)C)no2)nc1` [(S)-1-(5-Methyl-pyridin-2-yl)-5-oxo-pyrrolidine-2-carboxylic acid (3-tert-butyl-isoxazol-5-yl)-amide] gave an EC50 of 15.4 nM.
Work on `CC(C)(C)c1cc(NC(=O)[C@@H]2CCCN2c2ccc(C(F)(F)F)cn2)on1` [(S)-1-(5-Trifluoromethyl-pyridin-2-yl)-pyrrolidine-2-carboxylic acid (3-tert-butyl-isoxazol-5-yl)-amide] yielded an EC50 of 0.023 nM.
Molecule `CC(C)(C)c1csc(NC(=O)[C@@H]2CCCN2c2ccc(C(F)(F)F)cn2)n1` [(S)-1-(5-Trifluoromethyl-pyridin-2-yl)-pyrrolidine-2-carboxylic acid (4-tert-butyl-thiazol-2-yl)-amide] has an EC50 of 8.56 nM.
Work on `CC(C)(C)c1cc(NC(=O)[C@@H]2CCC(=O)N2c2ccc(C(F)(F)F)c(F)n2)on1` [(S)-1-(6-Fluoro-5-trifluoromethyl-pyridin-2-yl)-5-oxo-pyrrolidine-2-carboxylic acid (3-tert-butyl-isoxazol-5-yl)-amide] yielded an EC50 of 8.05 nM.
`CCCS(=O)(=O)N1CCC[C@H]1C(=O)Nc1cc(C(C)(C)C)on1` [(S)-1-(Propane-1-sulfonyl)-pyrrolidine-2-carboxylic acid (5-tert-butyl-isoxazol-3-yl)-amide] showed an EC50 of 120 nM.
Molecule `CC(C)(C)c1cc(NC(=O)[C@@H]2CCCN2CC2CCOC2)on1` (stereo partly drawn) [(S)-1-(Tetrahydro-furan-3-ylmethyl)-pyrrolidine-2-carboxylic acid (3-tert-butyl-isoxazol-5-yl)-amide] has an EC50 of 0.116 nM.
`CC(C)(C)c1cc(NC(=O)[C@@H]2CCCN2CC2CCCOC2)on1` (stereo partly drawn) [(S)-1-(Tetrahydro-pyran-3-ylmethyl)-pyrrolidine-2-carboxylic acid (3-tert-butyl-isoxazol-5-yl)-amide] gave an EC50 of 0.376 nM.
`CC(C)(C)c1csc(NC(=O)[C@@H]2CCCN2C2CCOCC2)n1` [(S)-1-(Tetrahydro-pyran-4-yl)-pyrrolidine-2-carboxylic acid (4-tert-butyl-thiazol-2-yl)-amide] showed an EC50 of 279 nM.
`O=C(Nc1nc2cc(Cl)c(Cl)cc2[nH]1)[C@@H]1CCCN1C1CCOCC1` [(S)-1-(Tetrahydro-pyran-4-yl)-pyrrolidine-2-carboxylic acid (5,6-dichloro-1H-benzimidazol-2-yl)-amide] gave an EC50 of 165 nM.
In the case of `O=C(Nc1nc2cc(F)ccc2[nH]1)[C@@H]1CCCN1C1CCOCC1` [(S)-1-(Tetrahydro-pyran-4-yl)-pyrrolidine-2-carboxylic acid (5-fluoro-1H-benzimidazol-2-yl)-amide], the EC50 [1] is reported as 391 nM.
Molecule `CC(C)(C)Cc1cc(NC(=O)[C@@H]2CCCN2C2CCOCC2)on1` [(S)-1-(Tetrahydro-pyran-4-yl)-pyrrolidine-2-carboxylic acid [3-(2,2-dimethyl-propyl)-isoxazol-5-yl]-amide] has an EC50 of 14.9 nM.
`O=C(Nc1nc(-c2ccccc2)ns1)[C@@H]1CCCN1CC1CCOCC1` [(S)-1-(Tetrahydro-pyran-4-ylmethyl)-pyrrolidine-2-carboxylic acid (3-phenyl-1,2,4-thiadiazol-5-yl)-amide] showed an EC50 of 40 nM.
With `CC(C)(C)c1cc(NC(=O)[C@@H]2CCCN2CC2CCOCC2)on1` [(S)-1-(Tetrahydro-pyran-4-ylmethyl)-pyrrolidine-2-carboxylic acid (3-tert-butyl-isoxazol-5-yl)-amide] the EC50 was 0.438 nM.
`CC(C)(C)c1csc(NC(=O)[C@@H]2CCCN2CC2CCOCC2)n1` [(S)-1-(Tetrahydro-pyran-4-ylmethyl)-pyrrolidine-2-carboxylic acid (4-tert-butyl-thiazol-2-yl)-amide] was tested, and the EC50 was 17.6 nM.
`O=C(Nc1nc2cc(Cl)c(Cl)cc2[nH]1)[C@@H]1CCCN1CC1CCOCC1` [(S)-1-(Tetrahydro-pyran-4-ylmethyl)-pyrrolidine-2-carboxylic acid (5,6-dichloro-1H-benzimidazol-2-yl)-amide] showed an EC50 of 56.2 nM.
With `O=C(Nc1nc2cc(Cl)ccc2[nH]1)[C@@H]1CCCN1CC1CCOCC1` [(S)-1-(Tetrahydro-pyran-4-ylmethyl)-pyrrolidine-2-carboxylic acid (5-chloro-1H-benzimidazol-2-yl)-amide] the EC50 was 48.6 nM.
With `O=C(Nc1nc2cc(Cl)ccc2s1)[C@@H]1CCCN1CC1CCOCC1` [(S)-1-(Tetrahydro-pyran-4-ylmethyl)-pyrrolidine-2-carboxylic acid (5-chloro-benzothiazol-2-yl)-amide] the EC50 [1] was 3.14 nM.
`CCc1sc(NC(=O)[C@@H]2CCCN2CC2CCOCC2)nc1-c1ccccc1` [(S)-1-(Tetrahydro-pyran-4-ylmethyl)-pyrrolidine-2-carboxylic acid (5-ethyl-4-phenyl-thiazol-2-yl)-amide] gave an EC50 of 10.9 nM.
With `CC(C)(C)c1nnc(NC(=O)[C@@H]2CCCN2CC2CCOCC2)s1` [(S)-1-(Tetrahydro-pyran-4-ylmethyl)-pyrrolidine-2-carboxylic acid (5-tert-butyl-1,3,4-thiadiazol-2-yl)-amide] the EC50 was 16.5 nM.
Work on `O=C(Nc1ccc(C(F)(F)F)cn1)[C@@H]1CCCN1CC1CCOCC1` [(S)-1-(Tetrahydro-pyran-4-ylmethyl)-pyrrolidine-2-carboxylic acid (5-trifluoromethyl-pyridin-2-yl)-amide] yielded an EC50 of 212 nM.
